The text below walks through data of patent US20130136778A1, “PTEROSTILBENE (PTER) FOR USE IN THE PREVENTION AND/OR TREATMENT OF SKIN DISEASES, DAMAGES OR INJURIES” (GREEN MOLECULAR, S.L., priority 2009, published 2013).

Molecules are shown by their SMILES.

The subject of data set [1] is SKH-1 mice. Put plainly: Thickness of the epidermis after acute UV-B exposure of 360 mJ/cm2. The note with it: FIG. 2, versus group treated only with UV-B. In kind it is in vivo. As for the experimental part:
UVB Acute exposure protocols were used: Mice underwent a single exposure of 360 mJ/cm2. The study was conducted at 24 hours after exposure. This protocol was used to evaluate the photoprotective effect of the compounds studied. With the same acute-phase protocol mice from all groups were irradiated. Subsequently mice remained in the animal storage area for a week to see the evolution of the inflammatory response and edema. • 1. Edema formation: skinfold thickness was determined with a caliper 24 hours after the first exposure. • 2. Study of the thickness of the epidermis after exposure to acute irradiation (360 mj/cm^2 24 h hours and 7 days after irradiation). • 3. Histological studies: measuring, in the pictures obtained from histological sections, the thickness of the epidermis. For studies of acute exposure skin samples were taken from the back of the mouse. These samples were fixed with 4% paraformaldehyde (24 hours) and embedded in paraffin. Following cutting the samples were stained with hematoxylin and eosin. The two protocols of UV-B exposure used were: • Intense exposure after a single exposure of 360 mJ/cm^2. The study was carried out 24 hours after the exposure. This protocol was used to assess the photoprotective effects of the compounds studied. • Intense exposure after a single exposure of 360 mJ/cm^2. The study was carried out 1 week after the exposure. The mice were kept in the shed for a week to observe the evolution of the inflammatory and edematous response. At 24 hours or 1 week after the administration of the different treatments the mice were sacrificed and their skin fixed with 4% PFA. To measure the thickness of the epidermis to evaluate possible hyperplasia, a computer program was used, Image J, calibrated with the assistance of a Neubauer camera which allowed the measuring of the epidermis. Results obtained were statistically analyzed by ANOVA and contrasted by the Tukey test and grouped according to the significant differences. […] Therefore PTER alone could be used efficiently in the prevention of skin diseases, injuries or damages induced by ultraviolet B radiation. The evaluation of skin thickness was carried out by using computer software (IMAGE J). Results obtained by ANOVA were contrasted by the Tukey test and grouped according to the significant differences. […] Therefore PTER separately could be used efficiently in the prevention of skin diseases, damages or injuries induced by ultraviolet B radiation.

Data set [2] has as its system SKH-1 mice. Put plainly: Experimental psoriasis induced by TPA. In kind it is in vivo.
Experimental: For the induction of psoriasis, the agent “12-O-tetradecanoylphorbol-13 acetate” (TPA) was used.
Since our objective was to assess the progress of the lesions caused by psoriasis in combination with the use of polyphenols, a model of continuous exposure and a weaker concentration of TPA were used, on a daily dose of 2 nmoles of TPA over a period of a week, which allowed us to observe the progress of the psoriasis.
The induction was performed with 2 nmol TPA/mouse on an area of 1 cm^2, applying 10 μL of the 200 μM solution in acetone. This application protocol was carried out taking into account that when applying 20 μL as stated in the model, the volume increased considerably and it lost its concentration, therefore it was decided to make it more concentrated.
As a standard treatment, Dexamethasone was used, (from Sigma Solution 25 mM in acetone). The administration of the standard treatment and the products to be tested were given 30 minutes prior to the application of TPA, both beginning on the same day.
The groups, of 6 mice, for this assessment were: • Not treated. • Reference compound: 0.5 μmoles of Dexamethasone (200 μL of one solution 25 mM in acetone). • Medium: 200 μl of vacuumed Liposomes. • Resveratrol: 200 μL of Resveratrol Liposomes (10 μmol in total). • PTER: 200 μL of PTER Liposomes (10 μmol in total). • QUER: 200 μL of QUER Liposomes (10 μmol in total). • PTER+QUER:: 200 μL of PTER Liposomes+QUER (10 μmol in total).
At 24 hours (day 7) after the last administration of the different treatments and TPA, 3 mice from each group were sacrificed and their skin fixed with 4% PFA. The remaining mice were kept under the treatment with no exposure to TPA, to verify if the skin recovered faster on the treatment than on its own. At 24 hours (day 9) after the last administration of the different treatments the rest of the mice were sacrificed and their skin fixed with 4% PFA.
The flaky aspect of the skin was quantified in a scale of 0-3, being 0, nothing; 1, mild; 2, moderate; 3, severe.
The test system of data set [3] is SKH-1 mice. Nature of the data set: Anatomopathological study of the skin after chronic exposure to UV-B. More on the design: key to Stroma: Parakeratosis: (+) light; (+++) serious. The note with it: after 30 weeks chronic UV-B 180 mJ/cm2. It counts as in vivo. How it is done: Histochemical techniques were used to study the skin tissues of the different procedures, at a microscopic level.
The tissues were fixed in 4% formaldehyde in PBS over 24 h at 22° C. After the tissues were fixed, they had to be dehydrated in large amounts of ethanol and placed in a hydrophobic and xylene mixture to allow the paraffin to penetrate the tissues to provide sufficient consistency for slicing them thinly in a microtome.
The samples in paraffin were processed with the microtome obtaining slices of about 5-10 μm. The samples were spread over a drop of gelatin at 37° C. and were collected in gelatinized slides.
The protocol used for staining the samples was: • 1. Incubation with Mayer's Hematoxylin for 10-15 minutes. • 2. Wash under running water until bluish. • 3. Incubate with Eosin (1%) for 2-4 minutes. • 4. Eliminate the remaining eosin in ethanol 70° • 5. Dehydration. • 6. Rinse with xylol for 3 minutes. • 7. Let the trays dry out on the stove at 37°.
In relation to the histopathological exam of the tumors induced by chronic irradiation to UV in the SKH1 mice, it was confirmed that the treatment with UV-B produced a strong acanthosis due primarily to the inflammatory process; this gave way to the first signs of tumors, mostly of carcinoma type and not melanoma.
Both the reference compounds and the ones subject of this study (10 μmoles/mouse of polyphenols, or 200 μl of each photoprotector) were applied to the back of the mice for 20 minutes prior to their exposure to UV-B. Medium of groups of 20 mice. Every parameter was measured according to the degree of seriousness (+) light-(+++) serious.

Data set [4] concerns SKH-1 mice. Nature of the data set: Skinfold thickness (edema) after acute UV-B exposure of 360 mJ/cm2. It counts as in vivo. To be noted: FIG. 1. How it is done:
UVB Acute exposure protocols were used: Mice underwent a single exposure of 360 mJ/cm2. The study was conducted at 24 hours after exposure. This protocol was used to evaluate the photoprotective effect of the compounds studied. With the same acute-phase protocol mice from all groups were irradiated. Subsequently mice remained in the animal storage area for a week to see the evolution of the inflammatory response and edema. For the UVB exposure studies (chronic or acute) a topical administration to the back of the mouse was conducted. The commercial sunscreens were applied directly on the mouse. The polyphenols in the study were administered in a liposomal preparation diluted 1:1 with Carbopol polymer which will be the vehicle for these liposomes. Each polyphenol dose administered was 10 μmol/mouse, as free acid. • 1. Edema formation: skinfold thickness was determined with a caliper 24 hours after the first exposure. • 2. Study of the thickness of the epidermis after exposure to acute irradiation (360 mj/cm^2 24 h hours and 7 days after irradiation). • 3. Histological studies: measuring, in the pictures obtained from histological sections, the thickness of the epidermis. With the purpose of assessing the effects of the photoprotective compounds studied, female mice SKH-1 of between 6-8 weeks old were subjected to a single exposure of 360 mJ/cm. For the ultraviolet B (UVB) irradiation exposure, a camera specifically prepared, available at our laboratory was used (Crosslinker; Bio-Link BLX 254) equipped with 5 tubes that produce 80% of the UVB radiation, with a maximum emission of 312 nm. The two protocols of UV-B exposure used were: • Intense exposure after a single exposure of 360 mJ/cm^2. The study was carried out 24 hours after the exposure. This protocol was used to assess the photoprotective effects of the compounds studied. • Intense exposure after a single exposure of 360 mJ/cm^2. The study was carried out 1 week after the exposure. The mice were kept in the shed for a week to observe the evolution of the inflammatory and edematous response. As reference, several commercial photoprotective products were used ([…] Heliocare). The reference compounds as well as the products object of this study, were applied on the back of the mice for 20 minutes after or 20 minutes before the irradiation with UV-B, to determine if the reaction observed was due to an effect of the solar filter or not. […] The skinfold was measured by making a fold on the skin from the back of the mice, from the axillae to the hips; the fold was measured with a vernier caliper. The increase in the fold was calculated by the difference between the initial point, before the effects of the reaction, and the thickness in each point.

For data set [5] the following is noted: Asensi et al. 2002; cited from earlier work.
The nature of data set [6]: Absorption spectrum of polyphenols (mechanical filter capacity). It counts as physicochemical. To be noted: 1 mM in pure ethanol, 200-800 nm. As for the experimental part:
A solution of 1 mM of each polyphenol was prepared (PTER, Resveratrol and QUER) in absolute ethanol (HPLS quality; Quima) and the absorption spectrum was studied between 200 and 800 nm using a Multiskan Spectrum (ThermoScientific).
With the purpose of studying the capacity of the polyphenols used in this study, we decided to evaluate the absorption of light throughout the ultraviolet light spectrum as shown in FIG. 13.

The test system of a further data set is mice. Nature of the data set: Skinfold after continuous administration of treatments (side effects on skin). In kind it is in vivo. The note with it: daily for 6 consecutive days; 10 μmoles/mouse polyphenols, 0.5 μmoles/mouse dexamethasone. How it is done: FIG. 17. […] The application of the treatments 10 μmoles/mouse of polyphenols and 0.5 μmoles/mouse of dexamethasone was performed daily on a third of the back of the mice for 6 consecutive days. The skinfold was measured with the help of a vernier caliper.*p>0.001 with regards to the control. ANOVA followed by a Tukey test.
Prior to evaluating the results of different treatments on different models of dermatitis, the possible side effects of continues administration of polyphenols on the skin of the mice had to be evaluated as shown in FIG. 17. For this purpose, the dose for this daily evaluation was administered over 6 consecutive days.

Turning to `Oc1ccc(/C=C/c2cc(O)cc(O)c2)cc1` [RESV, 3,4′,5-trihydroxy-trans-stilbene, reference compound], the “thickness of the epidermis 24 hours after irradiation (before or after application)” value in the data set on SKH-1 mice [1] is on record as “good photoprotection role but not as a repairer”. In the data set on SKH-1 mice [2] (FIG. 23, 6 consecutive days, treatment 30 min prior to 2 nmol TPA), the “increase of skinfold throughout the procedure” value is given as “the evolution was similar with an increase in the formation of edema”. Besides, the “increase in the skinfold 24 hours after the first administration of TPA” value in the data set with SKH-1 mice [2] (FIG. 24, treatment 30 min prior to 2 nmol TPA) was “did not produce any effect on the increase of the skinfold in comparison to the TPA group”. The “histological analysis of the lesions” value in the data set on SKH-1 mice [2] (FIG. 28, hematoxylin-eosin, TPA daily over 7 days) was “resembles more the group treated with TPA, than the group with PTER”. Besides, the “Tumor (no/mouse × group)” value in the data set on SKH-1 mice [3] (Table 4, applied 20 min prior) turned out to be 3.8. In addition, in the data set on SKH-1 mice [3] (degree of seriousness), the “Stroma: Parakeratosis” value is listed as “+”. The “formation of the edema (thickness of the skin) after severe UV-B exposure” value in the data set on SKH-1 mice [4] is “the formation of the edema was reduced”. Moreover, the bioavailability entry in data set [5] was “low bioavailability”. The “absorption of light, range of maximum absorption” value in data set [6] was “peaks or maximum absorption in the range of Ultraviolet B”.

Consider `C[C@@H]1C[C@H]2[C@@H]3CCC4=CC(=O)C=C[C@]4(C)[C@@]3(F)[C@@H](O)C[C@]2(C)[C@@]1(O)C(=O)CO` [dexamethasone], for which the “skinfold / structure of the skin after continuous administration” value with mice is given as “did have side effects on the structure of the skin”.
